Measurements published in ChEMBL document CHEMBL3885861, “Open TG-GATES”.

Organism: Rattus norvegicus
Test: Open TG-GATES - Regimen: Daily Repeat
Assay type: toxicity, organism-based, Sprague-Dawley
Design: regimen Daily Repeat, gender Male, age 6 weeks
Settings: in vivo, po, 100 mg/kg, route gavage, dose level Low; for APTT / Bas / Eos / Fbg / Hb / Ht / Lym / MCH / MCHC / MCV / Mono / Neu / PT / Plat / RBC / Ret / WBC: tissue Blood
[1] = 72 h, tissue Kidney, time 3 day
[2] = 72 h, tissue Plasma, time 3 day

COc1ccc(Cl)cc1C(=O)NCCc1ccc(S(=O)(=O)NC(=O)NC2CCCCC2)cc1 [GLYBURIDE]
TERMINAL_BW (72 h, time 3 day): 227.4 g
APTT (72 h, time 3 day): 20.1 s
Bas (72 h, time 3 day): 0%
Eos (72 h, time 3 day): 1%
Fbg (72 h, time 3 day): 222.4 mg/dL
Hb (72 h, time 3 day): 13.6 g/dL
Ht (72 h, time 3 day): 40.3%
Lym (72 h, time 3 day): 83%
MCH (72 h, time 3 day): 21.4 pg
MCHC (72 h, time 3 day): 33.6%
MCV (72 h, time 3 day): 63.7 fL
Mono (72 h, time 3 day): 2.6%
Neu (72 h, time 3 day): 12.8%
PT (72 h, time 3 day): 12.2 s
Plat (72 h, time 3 day): 115.5 x10_4/uL
RBC (72 h, time 3 day): 632.6 x10_4/ul
Ret (72 h, time 3 day): 5.2%
WBC (72 h, time 3 day): 104.4 x10_2/uL
KIDNEY_L [1]: 1 g
KIDNEY_R [1]: 1 g
KIDNEY_TOTAL [1]: 1.9 g
LIVER (72 h, tissue Liver, time 3 day): 10.6 g
A/G [2]: 1.7
ALP [2]: 952 IU/L
ALT [2]: 42 IU/L
AST [2]: 65.4 IU/L
BUN [2]: 15 mg/dL
CRE [2]: 0.4 mg/dL
Ca [2]: 10.9 mg/dL
Cl [2]: 103 meq/L
DBIL [2]: 0.1 mg/dL
GLC [2]: 187.8 mg/dL
IP [2]: 6.9 mg/dL
K [2]: 3.8 meq/L
LDH [2]: 183.6 IU/L
Na [2]: 141.6 meq/L
PL [2]: 153.8 mg/dL
RALB [2]: 3.5 g/dL
TBIL [2]: 0.1 mg/dL
TC [2]: 75.4 mg/dL
TG [2]: 113 mg/dL
TP [2]: 5.6 g/dL
gamma-GTP [2]: 1.4 IU/L
TERMINAL_BW ([…], time 7 day): 265.1 g
TERMINAL_BW ([…], time 14 day): 301.6 g
TERMINAL_BW ([…], time 28 day): 376.3 g
APTT ([…], time 7 day): 19.7 s
Bas ([…], time 7 day): 0.2%
Eos ([…], time 7 day): 0.8%
Fbg ([…], time 7 day): 223 mg/dL
Hb ([…], time 7 day): 13 g/dL
Ht ([…], time 7 day): 38.5%
Lym ([…], time 7 day): 79.4%
MCH ([…], time 7 day): 21 pg
MCHC ([…], time 7 day): 33.7%
MCV ([…], time 7 day): 62.3 fL
Mono ([…], time 7 day): 3%
Neu ([…], time 7 day): 16.4%
PT ([…], time 7 day): 12.5 s
Plat ([…], time 7 day): 124.6 x10_4/uL
RBC ([…], time 7 day): 618 x10_4/ul
Ret ([…], time 7 day): 5.6%
WBC ([…], time 7 day): 123.7 x10_2/uL
APTT ([…], time 14 day): 19.3 s
Bas ([…], time 14 day): 0%
Eos ([…], time 14 day): 1%
Fbg ([…], time 14 day): 224.6 mg/dL
Hb ([…], time 14 day): 14.3 g/dL
Ht ([…], time 14 day): 40.2%
Lym ([…], time 14 day): 78%
MCH ([…], time 14 day): 21 pg
MCHC ([…], time 14 day): 35.6%
MCV ([…], time 14 day): 59.2 fL
Mono ([…], time 14 day): 2.2%
Neu ([…], time 14 day): 17.8%
PT ([…], time 14 day): 12.3 s
Plat ([…], time 14 day): 122 x10_4/uL
RBC ([…], time 14 day): 679.6 x10_4/ul
Ret ([…], time 14 day): 3.9%
WBC ([…], time 14 day): 137.4 x10_2/uL
APTT ([…], time 28 day): 23 s
Bas ([…], time 28 day): 0%
Eos ([…], time 28 day): 0.8%
Fbg ([…], time 28 day): 207.8 mg/dL
Hb ([…], time 28 day): 15.2 g/dL
Ht ([…], time 28 day): 43.5%
